From paper PMC9112550, “Optimization of the antimicrobial peptide Bac7 by deep mutational scanning” (BMC Biology, 2022)

What was measured:
[1] = test system: E. coli TOP10; experiment: Deep mutational scanning, site-saturation Bac7_1-23 library, intracellular self-screening with NGS; assay type: cell-based; settings: induction vs 4.5 h, n = 3, more negative = more antimicrobial
Experimental: A focused strategy was pursued to generate diversity at positions 5, 18, 19, and 20 in the Bac7_1-23 peptide. […] Degeneration was introduced by using the QuikChange technique, amplifying the pBAD plasmid containing the Bac7_1-23 gene using a mixture of 20 oligonucleotides (Additional file 1: Table S1) at a final concentration of 0.3 μM and Phusion® High-Fidelity PCR Master Mix in HF buffer. The amplification was performed using 20 cycles of 98°C for 10 s, 60°C for 15 s, and 72°C for 10 s. The PCR product was treated with the enzyme Dpn1 to remove the template plasmid and subsequently purified. The purified product was used to transform 20 μl of CloneCatcher™ Gold DH5G Electrocompetent E. coli (Genlantis, Burlington, USA) cells using electroporation.
To assess the antimicrobial activity of multiple peptides in parallel when expressed intracellularly in E. coli TOP10, previously prepared aliquots containing E. coli plasmid libraries created by either random mutagenesis or site-saturation mutagenesis were used. For both approaches, three aliquots containing approximately 500 million cells each of E. coli TOP10 harboring peptide-encoding DNA sequences on the pBAD plasmid were thawed and added to three 1-l baffled shake flasks containing 100 ml of LB medium + 100 μg ml^−1 carbenicillin. The cultures were grown for roughly 7 h at 37°C.

[2] = test system: bacteria; settings: cited from earlier work
Text: One of the most intensively researched proline-rich AMPs is bactenecin-7 (Bac7). It is a 60 amino acid long linear peptide that was first isolated from bovine neutrophils. […] Measuring the antimicrobial activity of heavily mutated variants was valuable to determine the sequence-activity relationship of Bac7_1-23 because (i) the activity of specific amino acid res ... || Bac7PS excelled over Bac7_1-23 in terms of antimicrobial activity against clinical isolates including MDR bacteria and a decreased dependency on the SbmA transporter (Fig. 4a; Table 2). […] We mainly attribute the activity gain to the increased ability to penetrate membranes, which was accompanied by a slight increase in membrane damage at higher concentrations compared to Bac7_1-23 (Fig. 4b; Additional file 1 ...

[3] = test system: E. coli ATCC 25922; experiment: In vivo efficacy, murine septicemia model; settings: 30 mg kg^−1 IP once (1 h post-infection); 10 CD-1 mice; positive control
Experimental: CD-1 mice (7 weeks old, 27–28 g female) were used (Charles River, France). These animals were housed for a week of acclimation period before the experiment in a protected area in the ‘Centre de Zootechnie de l’Université de Bourgogne’ (Biosafety level 2 facility) and fed ad libitum according to the current recommendations by the European Institute of Health. Housing took place in rooms where a 12-h/12 h light/dark cycle is applied, the temperature ranges from 18 to 21°C and the relative humidity from 45 to 65%. The animal facility is authorized by the French authorities (Agreement N° C 21 464 04 EA). […]
For animal experiments, Bac7PS was synthesized at Genscript as acetate salt and with a purity of 92%. […] First, the maximum tolerated dose (MTD) for the peptide was determined by testing different peptide doses in 8 groups with 5 animals per group. The peptide solution was administered once by intraperitoneal (IP) injection with a volume of between 94 and 240 μl (depending on the weight of the animal and the dosage) and the animals were monitored for 2 h following the injection, then 6 to 8 h later, and then once or twice a day, depending on the clinical status, up to 5 days post-injection. […] As endpoint, the wellbeing and survival rate, on a twice daily based evaluation for up to 3 days, was monitored.

With “RRIRDRPPRLPRPRPRPIKDPRP [site-saturation library peptide ID 5521]” the “lfcShrink4 (shrunken log2-fold change of abundance of peptide-encoding DNA)” value [1] was -4.

In the case of “Bac7_1-15: Bac7_1-15 (RRIRPRPPRLPRPRP; Bactenecin-7; UniProt P19661 131-145, looked up, fragment)”, the “antimicrobial activity” value [2] is given as “loss of antimicrobial activity”.

In the case of O=C(O)c1cn(C2CC2)c2cc(N3CCNCC3)c(F)cc2c1=O [ciprofloxacin], the survival [3] is reported as “survival of all mice”.
